Consider twelve molecules from PMC10609173, “Antiplasmodial and Antileishmanial Activities of a New Limonoid and Other Constituents from the Stem Bark of Khaya senegalensis” (Molecules, 2023).

Broadly, the IC50 is the concentration at which inhibition is half-maximal. One may read the CC50 as the concentration that lowers cell viability or growth by half.

For series [1], the system named is multidrug-resistant Dd2 strain of Plasmodium falciparum (PfDd2). The series is described as follows: Antiplasmodial SYBR Green I fluorescence assay, PfDd2 strain. Type of series: cell-based. Conditions: Plasmodium falciparum. From the text: (§1) The parasite strains used in this study are continuously cultured at the Antimicrobial and Biocontrol Agents Unit of the University of Yaoundé I, and were graciously provided by BEI Resources (https://www.beiresources.org (accessed on 16 February 2019)). They comprise the Leishmania donovani strain (1S(MHOM/SD/62/1S), the multiresistant (PfDd2), and the chloroquine-sensitive (Pf3D7-(MRA-102)) strains of Plasmodium falciparum. RPMI 1640 media supplemented with 0.2% sodium bicarbonate (Sigma Aldrich, Billings, MT, USA), 0.5% Albumax II (Gibco), 1% hypoxanthine 100X (Gibco, Billings, MT, USA), 25 mM HEPES, and 0.04% gentamicin (Sigma Aldrich) was used to sustain P. falciparum strains in sterile petri dishes. Fresh red blood cells from healthy O^+ human volunteers were also added to the medium. These cells were suspended at 4% hematocrit (v/v) and incubated at 37 °C in a humidified environment with 5% CO2. To regularly maintain the culture, fresh medium was added to the culture every day. Thin blood smears stained with 10% Giemsa were used to microscopically monitor cell-cycle transition and parasitemia under immersion oil.
(§2) The antiplasmodial efficacy of the samples was evaluated using the SYBR Green I-based fluorescence assay, as previously reported by Smilkstein et al., on a sorbitol-synchronized ring stage culture of Plasmodium falciparum (PfDd2 and Pf3D7 strains). The test relies on the development of intense fluorescence following SYBR green binding to the exposed DNA found in wells containing healthy cells. Ninety microliters of parasites prepared with 1% hematocrit and 2% parasitemia and 10 μL of test sample extracts, fractions, isolated chemicals, chloroquine, and artemisinin were each added in triplicate into wells of a flat-bottomed microplate. The final test concentration values for the samples varied from 50 μg/mL-0.08 μg/mL and 100 μg/mL-0.16 μg/mL for extract/fractions. Following a 72 h incubation at 37 °C, 100 μL of SYBR Green I solution prepared with lysis buffer (0.2 μL of 10,000 SYBR Green I per mL of lysis buffer) made of EDTA (5 mM), Tris (20 mM; pH 7.5), Triton X-100 (0.08%; v/v), and saponin (0.008%; m/v) was added to each well. Fluorescence measurements were taken using an Infinite M200 microplate reader (Tecan, MT, USA) at emission and excitation wavelengths of 538 and 485 nm, respectively.
(§3) The resulting fluorescence readings were used to calculate the growth inhibition percentages relative to the negative control for each sample and for each of the tested doses. GraphPad Prism 8.0 software was used to generate concentration-response curves from the nonlinear regression fit to determine the median inhibitory or cytotoxic concentration (IC50/CC50). The resistance index (RI) for antiplasmodial tests was calculated as the ratio between the samples’ IC50 values for the chloroquine-sensitive strain 3D7 and the multiresistant strain Dd2 [69]. Inhibitors with an RI value below 1 were considered to act preferentially on the resistant strain. Based on each inhibitor’s antiparasitic efficacy (IC50) and cell toxicity (CC50), selectivity indices (SI) were calculated [SI = CC50 (RAW)/IC50 (Parasites)]. Samples were classified as poorly toxic to RAW cells if their SI values were greater than 10 [70].

The test system of series [2] is chloroquine-sensitive/sulfadoxine-resistant Pf3D7 strain. On the set-up: method as in PMID 36837917. Conditions: in vitro; isolated from Trichilia monadelpha; cited from earlier work.
Series [3] concerns promastigote form of Leishmania donovani (1S(MHOM/SD/62/1S)). The series is described as follows: Antileishmanial resazurin-based assay on promastigotes. It is filed as cell-based. The settings on record: for IC50: Leishmania donovani, read-out: Antileishmanial Activity IC50 ± SD; for Antileishmanial Selectivity (SI): SI = CC50 against macrophages/IC50 against promastigotes. How it is done:
A T-75 cm^2 cell culture flask was filled with complete Medium 199 [M199 supplemented with 10% heat-inactivated fetal bovine serum (HIFBS) and 100 IU/mL penicillin/streptomycin (Sigma, Darmstadt, Germany)] and used to grow the promastigote forms of Leishmania donovani. Every 72 h, flasks were subcultured and incubated at 28 °C.
The resazurin-based assay was used to evaluate the antileishmanial activity of the extract (100 μg/mL–0.16 μg/mL), major fractions (100 μg/mL–0.16 μg/mL), and isolated compounds (50 μg/mL–0.08 μg/mL) against the promastigote form of Leishmania donovani. Briefly, 10 μL of inhibitors at various triplicate doses (as prescribed for the antiplasmodial assay) were added to 90 μL of promastigotes from a logarithmic phase culture at a density of 4.10^5 parasites/mL. The plates were incubated for 28 h at 28 °C, and 10 μL of resazurin solution (Sigma, Darmstadt, Germany) was added. Amphotericin B (Sigma, Darmstadt, Germany) (10 μg–0.016 μg/mL) and 0.1% DMSO-treated wells were used as the […], respectively. After a further 44 h of incubation, plates were read using a Magelan Infinite M200 fluorescence plate reader (Tecan, Männedorf, Switzerland) at excitation and emission wavelengths of 530 and 590 nm, respectively.
as §3

A short description of series [4]: Cytotoxicity assay (resazurin) on RAW 264.7 macrophages. It is filed as cell-based, murine. Conditions: mouse. How it is done: The murine macrophage RAW 264.7 cell line was grown in DMEM (Dulbecco’s modified Eagle’s medium) containing 1% penicillin-streptomycin, 1% nonessential amino acids (NEA), and 10% HIFBS at 37 °C, and 5% CO2 in a humidified environment. A reverse Etaluma fluorescence microscope was used to view the cells every day, and the growth media was replaced every 72 h. At 80% confluence, cells were isolated using 0.25% Trypsine-EDTA (Gibco, MT, USA).
The murine macrophages, RAW 264.7 cells, were plated into a 96-well cell culture treated flat-bottomed plate ([…], Inc., Newton, NC 28658, USA) at a density of 10 × 10^4 cells/100 μL/well and incubated overnight to enable cell adhesion. A fresh complete medium containing serially diluted concentrations of crude extract, fractions, and compounds was used to replace the previous medium. The final assay concentration values for extracts/fractions and compounds varied from 400 μg/mL to 0.8 μg/mL and 100–0.16 μg/mL, respectively. Podophyllotoxin (Sigma-Aldrich, Munich, Germany) was used as a positive control at a maximum dose of 10 μM. After 48 h of incubation, 10 μL of resazurin solution (0.15 mg/mL dissolved in PBS) was added to each well, and the plates were incubated for an additional 4 h. Fluorescence data were finally recorded with a Magellan Infinite M200 plate reader (Tecan, Germany) at excitation and emission wavelengths of 530 nm and 590 nm, respectively.
as §3
A general note: Alamar Blue is a resazurin reagent that responds to reducing activity.

Series [5] has as its system chloroquine-sensitive 3D7 strain of Plasmodium falciparum (Pf3D7). Put plainly: Antiplasmodial SYBR Green I fluorescence assay, Pf3D7 strain. Type of series: cell-based. Conditions: read-out: Antiplasmodial Activity Pf3D7 IC50 ± SD.
From the text: as §1, §2, §3

The test system of series [6] is amastigote forms of Leishmania donovani. On the set-up: method as in doi:10.1076/phbi.39.4.284.5921. The settings on record: isolated from Khaya senegalensis; cited from earlier work.
The mark [7] stands for this setting: DD2, PfDd2 strain, ring stage, 72 h, read-out: Antiplasmodial Activity PfDd2 IC50 ± SD.
Setting [8] is: L. donovani promastigotes, 28 °C.
Setting [9] is: 3D7, Pf3D7 strain, ring stage, 72 h.
The mark [10] stands for this setting: RAW 264.7 macrophages, 48 h incubation, resazurin, read-out: Cytotoxicity on RAW 264.7 Cells CC50 ± SD.
[11] abbreviates: DD2, 72 h, read-out: Antiplasmodial Activity PfDd2 IC50 ± SD, PfDd2 strain, ring stage, 72 h.

Values after ≈ are worked out from the molar mass of the structure shown. Where two headings read alike, the source gives them in different places.

With `COC(=O)[C@H](O)[C@@H]1[C@@]2(C)[C@H]3CC[C@@]4(C)[C@H](c5ccoc5)OC(=O)C[C@@]45O[C@H]4C(=O)[C@@]1(C)C[C@]2(OC(C)=O)[C@@H]4[C@@]35O` [Khayanolide E (6), khayanolide E], the values for the IC50 in series [1] (setting [7]), in series [3] (setting [8]) and in series [5] (setting [9]) were 14.03 ± 0.06 mg/L (≈ 25.1 µM), 81.73 ± 0.12 mg/L (≈ 146 µM) and 56.98 ± 0.08 mg/L (≈ 102 µM), respectively. Also, the “IC50 against Pf3D7” value in series [2] was 1.68 mg/L (≈ 3.01 µM). In addition, the “Antileishmanial Selectivity (SI)” value in series [3] is recorded as 0.99. In series [4], this molecule gave a CC50 at 48 h of 81.6 mg/L (≈ 146 µM).
Regarding `Oc1cc(O)c2c(c1)O[C@H](c1ccc(O)c(O)c1)[C@@H](O)[C@@H]2c1c(O)cc(O)c2c1O[C@H](c1ccc(O)c(O)c1)[C@@H](O)C2` [catechin-(4a,8)-catechin], the “IC50 against amastigote forms of Leishmania donovani” value in series [6] is 3.98 mg/L.
For `COc1cc([C@@H]2c3cc4c(cc3[C@H](O)[C@H]3COC(=O)[C@H]23)OCO4)cc(OC)c1OC` [Podophyllotoxin, reference compound], the CC50 at 48 h in series [4] (setting [10]) is 0.71 ± 0.2 mg/L (≈ 1.71 µM).
Turning to `COc1ccc(-c2cc(=O)c3c(O)c(OC)c(OC)cc3o2)cc1OC` [Belamcanidin (8), Belamcanidin], the IC50 in series [1] (setting [7]) was found to be 50.97 ± 0.37 mg/L (≈ 142 µM); in series [3] (setting [8]), 22.21 ± 0.08 mg/L (≈ 62 µM); in series [5] (setting [9]), 104.9 ± 0.39 mg/L (≈ 293 µM). In series [3], the “Antileishmanial Selectivity (SI)” value was above 18.013. The same molecule displayed a CC50 at 48 h in series [4] above 400 mg/L.
`C=C1[C@@H]2CC[C@@]3(C)[C@H](c4ccoc4)OC(=O)C[C@]13O[C@H]1CC(=O)C(C)(C)[C@H](CC(=O)OC)[C@]12C` [Methylangolensate (4), methyl angolensate]: the IC50 amounted to 20.5 ± 0.45 mg/L (≈ 43.6 µM) in series [1] (setting [11]); 25.8 ± 0.27 mg/L (≈ 54.9 µM) in series [3]; 165.19 ± 0.06 mg/L (≈ 351 µM) in series [5] (3D7, 72 h). Moreover, the “Antileishmanial Selectivity (SI)” value in series [3] is listed as 2.81. For the same molecule, the CC50 at 48 h in series [4] (setting [10]) worked out at 72.7 mg/L (≈ 155 µM).
Turning to `CC1(C)CC[C@]2(C(=O)O)CC[C@]3(C)C(=CCC4[C@@]5(C)C[C@@H](O)[C@H](O)C(CO)(CO)C5CC[C@]43C)C2[C@@H]1O` (stereo partly drawn) [Bellericagenin B (2), bellericagenin B], the IC50 in series [1] (setting [7]) worked out at 34.02 ± 0.09 mg/L (≈ 65.3 µM); in series [3] (setting [8]), 6.5 ± 0.01 mg/L (≈ 12.5 µM); in series [5] (setting [9]), 107.7 ± 0.37 mg/L (≈ 207 µM). Also, in series [3], the “Antileishmanial Selectivity (SI)” value was above 61.54. In addition, the CC50 at 48 h in series [4] was above 400 mg/L.
As to `C=C1C2C(OC3CC(=O)OC4(C)COC(=O)CC4C32C)C(OC(=O)C(O)C(C)CC)C2(C)C(c3ccoc3)CC(=O)C12O` (stereo not drawn) [Rohituka-3 (5), rohituka-3], the IC50 was 15.9 ± 0.33 mg/L (≈ 26.5 µM) in series [1] (setting [11]), 23.35 ± 0.21 mg/L (≈ 38.9 µM) in series [3] (setting [8]) and 68 ± 0.02 mg/L (≈ 113 µM) in series [5] (setting [9]). Besides, the “Antileishmanial Selectivity (SI)” value in series [3] is above 17.13. Also, the CC50 at 48 h in series [4] (RAW 264.7 macrophage cells, RAW 264.7 macrophages, 48 h incubation, resazurin, read-out: Cytotoxicity on RAW 264.7 Cells CC50 ± SD) was above 400 mg/L.
For `C[C@@H]1[C@H](O)[C@@H](C)/C=C/C=C/C=C/C=C/C=C/C=C/C=C/[C@H](O[C@@H]2O[C@H](C)[C@@H](O)[C@H](N)[C@@H]2O)C[C@@H]2O[C@](O)(C[C@@H](O)C[C@@H](O)[C@H](O)CC[C@@H](O)C[C@@H](O)CC(=O)O[C@H]1C)C[C@H](O)[C@H]2C(=O)O` [Amphotericin B, amphotericin B, reference compound], the IC50 in series [3] (setting [8]) was determined as 3.14 ± 0.46 mg/L (≈ 3.4 µM).
Consider `C[C@@H]1CC[C@H]2[C@@H](C)C(=O)O[C@@H]3O[C@@]4(C)CC[C@@H]1[C@]32OO4` [Artemesin, artemisinin, reference compound], for which the IC50 was 0.024 ± 0.24 mg/L (≈ 0.085 µM) in series [1] (setting [7]) and 0.02 mg/L (≈ 0.0708 µM) in series [5] (setting [9]).
With `CCN(CC)CCCC(C)Nc1ccnc2cc(Cl)ccc12` (stereo not drawn) [Chloroquine, Chloroquine phosphate, reference compound], the IC50 was 0.085 ± 0.01 mg/L in series [1] (DD2, 72 h, read-out: Antiplasmodial Activity PfDd2 IC50 ± SD) and 0.022 ± 0.25 mg/L in series [5] (3D7, 72 h).
Take `C=C(C)[C@@H]1CC[C@]2(C(=O)O)CC[C@]3(C)[C@H](CC[C@@H]4[C@@]5(C)C[C@@H](O)[C@H](O)C(C)(C)[C@@H]5CC[C@]43C)[C@@H]12` [Alphitolic acid (3), alphitolic acid]: the IC50 in series [1] (setting [11]) is above 200 mg/L; in series [3] (setting [8]), 17.1 ± 0.9 mg/L (≈ 36.2 µM); in series [5] (setting [9]), 146.77 ± 0.13 mg/L (≈ 310 µM). Besides, in series [3], the “Antileishmanial Selectivity (SI)” value worked out at 2.09. Also, the CC50 at 48 h in series [4] was found to be 35.8 mg/L (≈ 75.6 µM).
As to `Oc1cc(O)c2c(c1)O[C@H](c1ccc(O)c(O)c1)[C@@H](O)[C@@H]2c1c(O)cc2c(c1O)C[C@H](O)[C@@H](c1ccc(O)c(O)c1)O2` [catechin-(4a,6)-catechin], the “IC50 against amastigote forms of Leishmania donovani” value in series [6] is 3.85 mg/L.
